# From ChEMBL document CHEMBL3400131, “Discovery of potent and selective urea-based ROCK inhibitors: Exploring the inhibitor's potency and ROCK2/PKA selectivity by 3D-QSAR, molecular docking and molecular dynamics simulations” (Bioorg Med Chem, 2015)
# Molecular target: Rho-associated protein kinase 2 (Homo sapiens, UniProt O75116)
# Assay: Inhibition of ROCK2 (unknown origin) using STK2 substrate after 4 hrs by HTRF mode
# Sequence of Rho-associated protein kinase 2 (O75116 whole entry): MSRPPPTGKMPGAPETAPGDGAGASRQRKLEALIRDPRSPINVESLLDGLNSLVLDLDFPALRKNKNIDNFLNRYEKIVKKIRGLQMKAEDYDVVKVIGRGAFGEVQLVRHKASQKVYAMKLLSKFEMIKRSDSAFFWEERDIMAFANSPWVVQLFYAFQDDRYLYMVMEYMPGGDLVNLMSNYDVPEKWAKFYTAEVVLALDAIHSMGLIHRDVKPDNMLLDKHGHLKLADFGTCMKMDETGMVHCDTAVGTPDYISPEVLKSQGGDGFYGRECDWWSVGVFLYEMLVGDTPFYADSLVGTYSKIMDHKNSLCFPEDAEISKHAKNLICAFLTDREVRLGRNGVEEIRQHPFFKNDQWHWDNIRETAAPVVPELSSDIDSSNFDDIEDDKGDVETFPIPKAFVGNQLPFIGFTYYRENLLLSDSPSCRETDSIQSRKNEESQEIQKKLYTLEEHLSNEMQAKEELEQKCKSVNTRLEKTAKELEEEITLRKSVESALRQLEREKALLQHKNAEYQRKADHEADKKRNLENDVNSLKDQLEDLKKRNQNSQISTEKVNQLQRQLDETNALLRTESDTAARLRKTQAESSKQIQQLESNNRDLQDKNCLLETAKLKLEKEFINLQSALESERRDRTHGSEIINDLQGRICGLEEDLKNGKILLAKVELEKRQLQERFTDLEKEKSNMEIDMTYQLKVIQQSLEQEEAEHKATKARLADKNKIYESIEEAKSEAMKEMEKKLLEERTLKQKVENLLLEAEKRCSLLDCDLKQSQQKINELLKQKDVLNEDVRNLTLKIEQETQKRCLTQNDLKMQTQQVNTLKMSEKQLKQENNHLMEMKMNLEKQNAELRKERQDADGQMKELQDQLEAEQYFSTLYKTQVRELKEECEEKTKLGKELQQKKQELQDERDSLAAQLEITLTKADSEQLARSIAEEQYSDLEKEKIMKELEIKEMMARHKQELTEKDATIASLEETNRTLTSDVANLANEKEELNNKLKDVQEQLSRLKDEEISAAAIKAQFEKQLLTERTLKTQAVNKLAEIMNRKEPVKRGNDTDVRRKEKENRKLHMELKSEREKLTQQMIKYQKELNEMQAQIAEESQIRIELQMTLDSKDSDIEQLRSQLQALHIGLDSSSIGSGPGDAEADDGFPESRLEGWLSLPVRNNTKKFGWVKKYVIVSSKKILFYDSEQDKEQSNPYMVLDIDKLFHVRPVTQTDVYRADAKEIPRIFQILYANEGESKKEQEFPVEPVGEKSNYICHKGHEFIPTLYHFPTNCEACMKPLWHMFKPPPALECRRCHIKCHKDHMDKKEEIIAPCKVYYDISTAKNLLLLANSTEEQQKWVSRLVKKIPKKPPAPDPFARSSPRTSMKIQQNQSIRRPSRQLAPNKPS
row,Structure (SMILES),IC50
1,COc1cccc(CNC(=O)Nc2ccc(-c3ncnc4[nH]ccc34)cc2)c1,188 nM
2,CNC(=O)N(C)c1ccc(-c2cn[nH]c2)cc1,87 nM
3,CNC(=O)N(CCO)c1ccc(-c2cn[nH]c2)cc1,611 nM
4,CNC(=O)N(CCN(C)C)c1ccc(-c2cn[nH]c2)cc1,2980 nM
5,CNC(=O)N(CCCN(C)C)c1ccc(-c2cn[nH]c2)cc1,3320 nM
6,O=C(Nc1ccc(-c2cn[nH]c2)cc1OCCO)N(CCO)Cc1ccccc1,< 1 nM
7,CN(C)CCOc1cc(-c2cn[nH]c2)ccc1NC(=O)N(CCN(C)C)Cc1ccccc1,170 nM
8,CN(C)CCSc1cc(-c2cn[nH]c2)ccc1NC(=O)NCc1ccccc1,5.6 nM
9,CN(C)CCN(C)c1cc(-c2cn[nH]c2)ccc1NC(=O)NCc1ccccc1,8.5 nM
10,CC(C)N(Cc1ccccc1)C(=O)Nc1ccc(-c2cn[nH]c2)cc1,8 nM

# Test system: not listed separately
# Assay: Inhibition of recombinant human full length PKA using kemptide substrate after 80 mins by luminescence mode
row,Structure (SMILES),IC50
1,O=C(Nc1ccc(-c2cn[nH]c2)cc1)N(CCO)Cc1ccccc1,610 nM
2,O=C(Nc1ccc(-c2cn[nH]c2)cc1)NC(CCO)c1cccc(F)c1 (stereo unspecified),580 nM
3,O=C(Nc1ccc(-c2cn[nH]c2)cc1)NC(CCO)c1ccccc1 (stereo unspecified),438 nM
4,O=C(Nc1ccc(-c2cn[nH]c2)cc1)NC(CO)c1ccccc1 (stereo unspecified),389 nM
5,CN(C)CCC(NC(=O)Nc1ccc(-c2cn[nH]c2)cc1)c1ccccc1 (stereo unspecified),238 nM
6,CCN(Cc1cccc(OC)c1)C(=O)Nc1ccc(-c2cn[nH]c2)cc1O[C@H]1CCN(C)C1,6700 nM
7,COc1cccc(CN(C(=O)Nc2ccc(-c3cn[nH]c3)cc2)C(C)C)c1,18400 nM
8,COc1cccc(CN(CCO)C(=O)Nc2ccc(-c3cn[nH]c3)cc2)c1,2990 nM
9,COCCN(Cc1cccc(OC)c1)C(=O)Nc1ccc(-c2cn[nH]c2)cc1,10500 nM
10,COc1cccc(CN(CCN)C(=O)Nc2ccc(-c3cn[nH]c3)cc2)c1,72 nM
11,COc1cccc(CN(CCN(C)C)C(=O)Nc2ccc(-c3cn[nH]c3)cc2)c1,456 nM
12,COc1cccc(CN(CCN2CCCC2)C(=O)Nc2ccc(-c3cn[nH]c3)cc2)c1,541 nM
13,COc1cccc(CN(CCCN2CCCC2)C(=O)Nc2ccc(-c3cn[nH]c3)cc2)c1,228 nM
14,COc1cccc(CN(CCN2CCOCC2)C(=O)Nc2ccc(-c3cn[nH]c3)cc2)c1,3820 nM
15,COc1cccc(CN(CCCN2CCOCC2)C(=O)Nc2ccc(-c3cn[nH]c3)cc2)c1,724 nM
16,COc1cccc(CN(CCN2CCCCC2)C(=O)Nc2ccc(-c3cn[nH]c3)cc2)c1,338 nM
17,COc1cccc(CN(CCCN2CCCCC2)C(=O)Nc2ccc(-c3cn[nH]c3)cc2)c1,822 nM
18,O=C(Nc1ccc(-c2cn[nH]c2)cc1F)N(CCO)Cc1ccccc1,1020 nM
19,COc1cccc(C(CCO)NC(=O)Nc2ccc(-c3cn[nH]c3)cc2)c1 (stereo unspecified),4870 nM
20,O=C(NCCc1ccccc1)Nc1ccc(-c2cn[nH]c2)cc1,3100 nM
21,O=C(NCCCc1ccccc1)Nc1ccc(-c2cn[nH]c2)cc1,> 20000 nM
22,O=C(Nc1ccc(-c2cn[nH]c2)cc1)N1CCc2ccccc2C1,8000 nM

row,Structure (SMILES),IC50
1,O=C(NCC1CCCCC1)Nc1ccc(-c2cn[nH]c2)cc1,> 20000 nM
2,COc1cccc(CNC(=O)Nc2ccc(-c3cn[nH]c3)cc2)c1OC,> 20000 nM
3,COc1ccc(CNC(=O)Nc2ccc(-c3cn[nH]c3)cc2)c(OC)c1,11200 nM
4,COc1ccc(OC)c(CNC(=O)Nc2ccc(-c3cn[nH]c3)cc2)c1,> 20000 nM
5,COc1cccc(OC)c1CNC(=O)Nc1ccc(-c2cn[nH]c2)cc1,13500 nM
6,COc1ccc(CNC(=O)Nc2ccc(-c3cn[nH]c3)cc2)cc1OC,> 20000 nM
7,COc1cc(CNC(=O)Nc2ccc(-c3cn[nH]c3)cc2)cc(OC)c1,> 20000 nM
8,COc1ccc(CNC(=O)Nc2ccc(-c3cn[nH]c3)cc2)cc1F,518 nM
9,COc1cccc(CN(C)C(=O)Nc2ccc(-c3cn[nH]c3)cc2)c1,1810 nM
10,CCN(Cc1cccc(OC)c1)C(=O)Nc1ccc(-c2cn[nH]c2)cc1,4670 nM
11,COc1cccc(CN(C(=O)Nc2ccc(-c3cn[nH]c3)cc2)C2CC2)c1,1700 nM
12,COc1ccccc1CNC(=O)Nc1ccc(-c2cn[nH]c2)cc1,654 nM
13,Cc1cccc(CNC(=O)Nc2ccc(-c3cn[nH]c3)cc2)c1,2630 nM
14,Nc1cccc(CNC(=O)Nc2ccc(-c3cn[nH]c3)cc2)c1,405 nM
15,O=C(NCc1cccc(Cl)c1)Nc1ccc(-c2cn[nH]c2)cc1,454 nM
16,O=C(NCc1cccc(F)c1)Nc1ccc(-c2cn[nH]c2)cc1,322 nM
17,COc1cccc(CNC(=O)Nc2ccc(-c3c[nH]nc3C)cc2)c1,816 nM
18,COc1cccc(CNC(=O)Nc2ccc(-c3ccncc3)cc2)c1,2300 nM
19,COc1cccc(CNC(=O)Nc2ccc(-c3ccnc(N)n3)cc2)c1,1030 nM
20,COc1cccc(CNC(=O)Nc2ccc(-c3ccnc(N)c3)cc2)c1,5140 nM
21,COc1cccc(CNC(=O)Nc2ccc(-c3ncnc4[nH]ccc34)cc2)c1,744 nM
22,COc1cccc(CNC(=O)Nc2ccc(-c3cn[nH]c3)cc2N(C)C)c1,38 nM

row,Structure (SMILES),IC50
1,COc1cccc(CNC(=O)Nc2ccc(-c3cn[nH]c3)cc2OC)c1,163 nM
2,COc1cccc(CNC(=O)Nc2ccc(-c3cn[nH]c3)cc2Cl)c1,313 nM
3,COc1cccc(CNC(=O)Nc2ccc(-c3cn[nH]c3)cc2F)c1,1820 nM
4,COc1cccc(CNC(=O)Nc2ccc(-c3cn[nH]c3)cc2OCCN(C)C)c1,3900 nM
5,COc1cccc(CNC(=O)Nc2ccc(-c3cn[nH]c3)cc2OCCN2CCCC2)c1,2730 nM
6,COc1cccc(CNC(=O)Nc2ccc(-c3cn[nH]c3)cc2N(C)CCN(C)C)c1,3570 nM
7,COc1cccc(CN(C)C(=O)Nc2ccc(-c3cn[nH]c3)cc2OCCN(C)C)c1,5220 nM
8,COc1cccc(CN(C)C(=O)Nc2ccc(-c3cn[nH]c3)cc2OCCN2CCCC2)c1,> 20000 nM
9,COc1cccc(CN(C)C(=O)Nc2ccc(-c3cn[nH]c3)cc2N(C)CCN(C)C)c1,4620 nM
10,CCN(Cc1cccc(OC)c1)C(=O)Nc1ccc(-c2cn[nH]c2)cc1OCCN(C)C,> 20000 nM
11,CCN(Cc1cccc(OC)c1)C(=O)Nc1ccc(-c2cn[nH]c2)cc1OCCN1CCCC1,18100 nM
12,CCN(Cc1cccc(OC)c1)C(=O)Nc1ccc(-c2cn[nH]c2)cc1N(C)CCN(C)C,5000 nM
13,O=C(NCc1ccccc1)Nc1ccc(-c2cn[nH]c2)cc1,590 nM
14,COc1cccc(CNC(=O)Nc2ccc(-c3cn[nH]c3)cc2)c1,882 nM
15,CNC(=O)N(C)c1ccc(-c2cn[nH]c2)cc1,> 20000 nM
16,CNC(=O)N(CCO)c1ccc(-c2cn[nH]c2)cc1,> 20000 nM
17,CNC(=O)N(CCN(C)C)c1ccc(-c2cn[nH]c2)cc1,4200 nM
18,CNC(=O)N(CCCN(C)C)c1ccc(-c2cn[nH]c2)cc1,12000 nM
19,O=C(Nc1ccc(-c2cn[nH]c2)cc1OCCO)N(CCO)Cc1ccccc1,615 nM
20,CN(C)CCSc1cc(-c2cn[nH]c2)ccc1NC(=O)NCc1ccccc1,468 nM
21,CN(C)CCN(C)c1cc(-c2cn[nH]c2)ccc1NC(=O)NCc1ccccc1,894 nM
22,CC(C)N(Cc1ccccc1)C(=O)Nc1ccc(-c2cn[nH]c2)cc1,3380 nM
